Measured values from publication PMC8032764 (Scientific Reports, 2021).
Like-named read-outs stand apart in the source and are kept apart here.

Tests used:
[1] = system: T1, Adenosine A3; experiment: Cerep binding; design: species or system human; conditions: 10 μM; [125I]AB-MECA; hum. recomb. (HEK-293)
T1 construct: host or cells: HEK-293

[2] = system: T2, Cannabinoid CB1; experiment: Cerep binding; design: species or system human; conditions: 10 μM; [3H]CP 55940; hum. recomb. (CHO)
T2 construct: host or cells: CHO

[3] = system: T3, Dopamine D4.4; experiment: Cerep binding; design: species or system human; conditions: 10 μM; [3H]spiperone; hum. recomb. (CHO)
T3 construct: host or cells: CHO

[4] = system: GABA (non-selective); experiment: Cerep binding; conditions: 10 μM; [3H]GABA; rat cerebral cortex
[5] = system: T4, Histamine H1; experiment: Cerep binding; design: species or system human; conditions: 10 μM; [3H]pyrilamine; hum. recomb. (HEK-293)
T4 construct: host or cells: HEK-293

[6] = system: T5, Prostanoid IP (PGI2); experiment: Cerep binding; design: species or system human; conditions: 10 μM; [3H]iloprost; hum. recomb. (HEK-293)
T5 construct: host or cells: HEK-293

[7] = system: T6, Serotonin 5-HT3; experiment: Cerep binding; design: species or system human; conditions: 10 μM; [3H]BRL 43694; hum. recomb. (CHO)
T6 construct: purchased Eurofins Cerep

[8] = system: T7, Cholecystokinin CCK1; experiment: Cerep binding; design: species or system human; conditions: 10 μM; [125I]CCK-8s; hum. recomb. (CHO)
T7 construct: purchased Eurofins Cerep

[9] = system: T8, Cholecystokinin CCK2; experiment: Cerep binding; design: species or system human; conditions: 10 μM; [125I]CCK-8s; hum. recomb. (CHO)
T8 construct: purchased Eurofins Cerep

[10] = system: Platelet derived growth factor (PDGF); experiment: Cerep binding; conditions: 10 μM; [125I]PDGF BB; mouse, Balb/c 3T3 cells
[11] = system: T9, Neurokinin NK3; experiment: Cerep binding; design: species or system human; conditions: 10 μM; [3H]SR 142801; hum. recomb. (CHO)
T9 construct: purchased Eurofins Cerep

[12] = system: T10, Vasopressin V1A; experiment: Cerep binding; design: species or system human; conditions: 10 μM; [3H]AVP; hum. recomb. (CHO)
T10 construct: host or cells: CHO

[13] = system: SKCa channel; experiment: Cerep binding; conditions: 10 μM; [125I]apamin; rat cerebral cortex
[14] = system: GABAA Cl- channel (non- selective); experiment: Cerep binding; conditions: 10 μM; [35S]TBPS; rat cerebral cortex
[15] = system: cynomolgus macaques; experiment: Object retrieval task; assay type: in vivo, Macaca fascicularis; conditions: 2 h prior to testing
Procedure: Twelve cynomolgus macaques were presented with a clear acrylic box with one open side baited with a food treat, as described previously[14],[38]. The test is easy when the open side of the box is directed towards the subject and difficult when the open sides face other directions. […] Compound doses were administered in a pseudorandom order. Administration of dose and behavioral measurements were completed blind. Data were analysed using a one-way repeated measures ANOVA followed, in significant cases, by a post hoc Dunnett’s test. Plasma samples were collected from the same three subjects at each dose group at 3 h post administration.

[16] = Pharmacokinetics, single oral dosing; assay type: in vivo; conditions: plasma; for Tmax: read-out: Tmax (range)
Procedure: Concentrations were chosen to achieve the desired doses by administering 5 mL/kg to rats and 2.5 mL/kg to NHPs via oral gavage.
The calibration range was from 1.0 to 5000 ng/mL. After protein precipitation with ethanol, the sample solution was injected onto a Gemini C18 trapping column (2 × 10 mm; Phenomenex, Torrance, CA, USA) and polar endogenous compounds and salts were rinsed off. Analytical separation was performed on an Atlantis T3 column (2.1 × 50 mm) (Waters, Milford, MA, USA), using methanol/water containing 0.1% formic acid as mobile phase. A drug analogue was used as an internal standard.

[17] = system: healthy male subjects; experiment: Study BP25129 single-ascending dose, safety EEG; assay type: in vivo, human
Procedure: CLINICAL INFORMATION: Safety EEG data from Phase I studies in healthy volunteers
1) Study BP25129 Single-Ascending Dose (SAD) in Healthy Volunteers
Single doses of between 1.5 mg and 1250 mg were administered to groups of eight healthy male subjects (age range 18–44 years) per dose level (6 received active drug, two received placebo). All nine planned cohorts in the Part 1 SAD study were completed, and all subjects completed dosing as planned.
Food Effect (FE) Cohort: Eight subjects were enrolled, all received active drug as planned on two separate occasions, with food condition (Fed or Fasted) on each occasion determined in a randomized manner. All subjects enrolled in the FE portion of Part 1 completed the study.
EEG assessments were made in Cohorts 6, 8, 9 and FE Cohort only:
• Cohort 6: 160 mg (n dosed: 6)
• Cohort 8: 660 mg (n dosed: 6)
• Cohort 9: 1250 mg (n dosed: 6)
• Food effect Cohort: 660 mg ([…]) […]
On the day of dosing, an EEG in the resting, awake state was recorded starting about 1 hour prior to dosing and ending approximately 7 h after dosing. EEG results were recorded either as normal, normal variant or abnormal variant. If an abnormal variant measurement was recorded, then the Investigator could continue recordings as appropriate until a return to […]
participants had several EEGs and several participants had sleep assessments with EEG that were also evaluated: […]

[18] = system: non-impaired rodents; experiment: Cognitive performance in non-impaired rodents; assay type: in vivo; conditions: data not shown
[19] = Beagle, dog, 4 mg/kg oral, capsule, n = 3 male, ± standard deviation
[20] = C57/Bl6, mouse, 4 mg/kg oral, microsuspension, n = 2 male
[21] = Wistar, rat, 9 mg/kg oral, microsuspension, n = 2 male

Cc1onc(-c2ccc(F)cc2)c1COc1ccc(C(=O)N2CCS(=O)(=O)CC2)cn1 [basmisanil]
% Inhibition [1]: 6%
% Inhibition [2]: 16%
% Inhibition [3]: 9%
% Inhibition [4]: -1%
% Inhibition [5]: 10%
% Inhibition [6]: -1%
% Inhibition [7]: 8%
% Inhibition [8]: 10%
% Inhibition [9]: -21%
% Inhibition [10]: -17%
% Inhibition [11]: -9%
% Inhibition [12]: 13%
% Inhibition [13]: 3%
% Inhibition [14]: -6%
percentage of correct first reaches during difficult trials ([15]; 1 and 30 mg/kg p.o.): no marked improvement on performance
percentage of correct first reaches during difficult trials ([15]; 3 and 10 mg/kg p.o.): significantly improved
bioavailability ([16]; Beagle, dog, 4 mg/kg oral, capsule, n = 3 male): 61%
Tmax ([16]; Beagle, dog, 4 mg/kg oral, capsule, n = 3 male, median): 90 min
AUC(0-t) [16, 19]: 10600 ng·h/mL
Cmax [16, 19]: 788 ± 275 ng/mL
AUC(0-t) [16, 20]: 455 ng·h/mL
Cmax [16, 20]: 520 ng/mL
bioavailability [16, 20]: 25%
Tmax [16, 20]: 18 min
AUC(0-t) [16, 21]: 1100 ng·h/mL
Cmax [16, 21]: 400 ng/mL
bioavailability [16, 21]: 41%
Tmax [16, 21]: 30 min
tolerability ([17]; single doses 1.5 mg to 1250 mg): well tolerated
EEG assessments ([17]; single doses of 160 mg, 660 mg and 1250 mg): did not reveal any findings of clinical
enhancement of cognitive performance [18]: have not shown enhancement of cognitive performance
